Experimental data: ChEMBL document CHEMBL3885861, “Open TG-GATES”

Organism: Rattus norvegicus
Assay: Open TG-GATES - Regimen: Single
Format: toxicity, organism-based, Sprague-Dawley
Parameters: regimen Single, gender Male, age 6 weeks
Conditions: in vivo, po, route gavage; for APTT / Bas / Eos / Fbg / Hb / Ht / Lym / MCH / MCHC / MCV / Mono / Neu / PT / Plat / RBC / Ret / WBC: tissue Blood; for KIDNEY_L / KIDNEY_R / KIDNEY_TOTAL: tissue Kidney; for LIVER: tissue Liver; for A/G / ALP / ALT / AST / BUN / CRE / Ca / Cl / DBIL / GLC / IP / K / LDH / Na / PL / RALB / TBIL / TC / TG / TP / gamma-GTP: tissue Plasma
[1] = 100 mg/kg, 3 h, dose level Middle
[2] = 100 mg/kg, 6 h, dose level Middle
[3] = 100 mg/kg, 9 h, dose level Middle
[4] = 100 mg/kg, 24 h, dose level Middle
[5] = 300 mg/kg, 3 h, dose level High
[6] = 300 mg/kg, 6 h, dose level High
[7] = 300 mg/kg, 9 h, dose level High
[8] = 300 mg/kg, 24 h, dose level High

Brc1ccccc1 [BROMOBENZENE]
TERMINAL_BW [1]: 191 g
APTT [1]: 16 s
Bas [1]: 0%
Eos [1]: 0.6%
Fbg [1]: 266.6 mg/dL
Hb [1]: 13.4 g/dL
Ht [1]: 40.5%
Lym [1]: 79.2%
MCH [1]: 21.4 pg
MCHC [1]: 33%
MCV [1]: 64.7 fL
Mono [1]: 3.6%
Neu [1]: 16%
PT [1]: 12.3 s
Plat [1]: 111.5 x10_4/uL
RBC [1]: 625.8 x10_4/ul
Ret [1]: 10%
WBC [1]: 74.4 x10_2/uL
KIDNEY_L [1]: 0.8 g
KIDNEY_R [1]: 0.8 g
KIDNEY_TOTAL [1]: 1.6 g
LIVER [1]: 7.8 g
A/G [1]: 0.9
ALP [1]: 1591.2 IU/L
ALT [1]: 51 IU/L
AST [1]: 76.8 IU/L
BUN [1]: 8.6 mg/dL
CRE [1]: 0.2 mg/dL
Ca [1]: 11 mg/dL
Cl [1]: 105.8 meq/L
DBIL [1]: 0.004 mg/dL
GLC [1]: 183 mg/dL
IP [1]: 11.1 mg/dL
K [1]: 3.9 meq/L
LDH [1]: 80.8 IU/L
Na [1]: 142.8 meq/L
PL [1]: 155.6 mg/dL
RALB [1]: 2.7 g/dL
TBIL [1]: 0.044 mg/dL
TC [1]: 87.4 mg/dL
TG [1]: 42.6 mg/dL
TP [1]: 5.7 g/dL
gamma-GTP [1]: 1.2 IU/L
TERMINAL_BW [2]: 190.5 g
APTT [2]: 15.9 s
Bas [2]: 0%
Eos [2]: 0.8%
Fbg [2]: 269.2 mg/dL
Hb [2]: 13.4 g/dL
Ht [2]: 39.7%
Lym [2]: 78.8%
MCH [2]: 21.4 pg
MCHC [2]: 33.8%
MCV [2]: 63.3 fL
Mono [2]: 2.4%
Neu [2]: 17.6%
PT [2]: 12.4 s
Plat [2]: 107.8 x10_4/uL
RBC [2]: 627 x10_4/ul
Ret [2]: 8.6%
WBC [2]: 68.9 x10_2/uL
KIDNEY_L [2]: 0.8 g
KIDNEY_R [2]: 0.8 g
KIDNEY_TOTAL [2]: 1.6 g
LIVER [2]: 6.8 g
A/G [2]: 0.9
ALP [2]: 1550 IU/L
ALT [2]: 41.8 IU/L
AST [2]: 75.4 IU/L
BUN [2]: 9.4 mg/dL
CRE [2]: 0.1 mg/dL
Ca [2]: 10.8 mg/dL
Cl [2]: 105.4 meq/L
DBIL [2]: 0.014 mg/dL
GLC [2]: 179.8 mg/dL
IP [2]: 11 mg/dL
K [2]: 3.8 meq/L
LDH [2]: 64.4 IU/L
Na [2]: 141.2 meq/L
PL [2]: 137.8 mg/dL
RALB [2]: 2.6 g/dL
TBIL [2]: 0.054 mg/dL
TC [2]: 78.4 mg/dL
TG [2]: 41.4 mg/dL
TP [2]: 5.6 g/dL
gamma-GTP [2]: 1.6 IU/L
TERMINAL_BW [3]: 190 g
APTT [3]: 15.5 s
Bas [3]: 0%
Eos [3]: 0.6%
Fbg [3]: 266.4 mg/dL
Hb [3]: 13.5 g/dL
Ht [3]: 40.2%
Lym [3]: 76.8%
MCH [3]: 21.5 pg
MCHC [3]: 33.6%
MCV [3]: 63.9 fL
Mono [3]: 2.2%
Neu [3]: 19.4%
PT [3]: 12.3 s
Plat [3]: 115.9 x10_4/uL
RBC [3]: 629 x10_4/ul
Ret [3]: 9.1%
WBC [3]: 79.5 x10_2/uL
KIDNEY_L [3]: 0.8 g
KIDNEY_R [3]: 0.8 g
KIDNEY_TOTAL [3]: 1.5 g
LIVER [3]: 6.8 g
A/G [3]: 0.9
ALP [3]: 1400.4 IU/L
ALT [3]: 39.4 IU/L
AST [3]: 70.8 IU/L
BUN [3]: 13 mg/dL
CRE [3]: 0.2 mg/dL
Ca [3]: 10.8 mg/dL
Cl [3]: 107 meq/L
DBIL [3]: 0.02 mg/dL
GLC [3]: 179.2 mg/dL
IP [3]: 10.8 mg/dL
K [3]: 4 meq/L
LDH [3]: 78.2 IU/L
Na [3]: 141.8 meq/L
PL [3]: 147.8 mg/dL
RALB [3]: 2.6 g/dL
TBIL [3]: 0.064 mg/dL
TC [3]: 88 mg/dL
TG [3]: 29.4 mg/dL
TP [3]: 5.5 g/dL
gamma-GTP [3]: 1.4 IU/L
TERMINAL_BW [4]: 193.2 g
APTT [4]: 15.4 s
Bas [4]: 0%
Eos [4]: 0.8%
Fbg [4]: 224.4 mg/dL
Hb [4]: 12.9 g/dL
Ht [4]: 38%
Lym [4]: 79.6%
MCH [4]: 21.5 pg
MCHC [4]: 33.9%
MCV [4]: 63.3 fL
Mono [4]: 2.8%
Neu [4]: 16.4%
PT [4]: 12.9 s
Plat [4]: 112.9 x10_4/uL
RBC [4]: 600.8 x10_4/ul
Ret [4]: 8.5%
WBC [4]: 84.8 x10_2/uL
KIDNEY_L [4]: 0.9 g
KIDNEY_R [4]: 0.9 g
KIDNEY_TOTAL [4]: 1.7 g
LIVER [4]: 8.9 g
A/G [4]: 0.9
ALP [4]: 1694.4 IU/L
ALT [4]: 52.2 IU/L
AST [4]: 79 IU/L
BUN [4]: 12 mg/dL
CRE [4]: 0.2 mg/dL
Ca [4]: 10.4 mg/dL
Cl [4]: 106 meq/L
DBIL [4]: 0.018 mg/dL
GLC [4]: 186 mg/dL
IP [4]: 8.1 mg/dL
K [4]: 4 meq/L
LDH [4]: 103.2 IU/L
Na [4]: 142.6 meq/L
PL [4]: 146.8 mg/dL
RALB [4]: 2.5 g/dL
TBIL [4]: 0.062 mg/dL
TC [4]: 76.8 mg/dL
TG [4]: 100 mg/dL
TP [4]: 5.4 g/dL
gamma-GTP [4]: 1.4 IU/L
TERMINAL_BW [5]: 190.3 g
APTT [5]: 15.8 s
Bas [5]: 0%
Eos [5]: 0.8%
Fbg [5]: 289.8 mg/dL
Hb [5]: 14.1 g/dL
Ht [5]: 41.4%
Lym [5]: 76.6%
MCH [5]: 21.7 pg
MCHC [5]: 33.9%
MCV [5]: 64 fL
Mono [5]: 3.2%
Neu [5]: 19.2%
PT [5]: 12 s
Plat [5]: 115.3 x10_4/uL
RBC [5]: 648.4 x10_4/ul
Ret [5]: 9.4%
WBC [5]: 67.3 x10_2/uL
KIDNEY_L [5]: 0.8 g
KIDNEY_R [5]: 0.8 g
KIDNEY_TOTAL [5]: 1.7 g
LIVER [5]: 7.6 g
A/G [5]: 0.9
ALP [5]: 1696 IU/L
ALT [5]: 48.2 IU/L
AST [5]: 81.6 IU/L
BUN [5]: 8 mg/dL
CRE [5]: 0.1 mg/dL
Ca [5]: 11 mg/dL
Cl [5]: 105.2 meq/L
DBIL [5]: 0.01 mg/dL
GLC [5]: 191.6 mg/dL
IP [5]: 10.9 mg/dL
K [5]: 3.6 meq/L
LDH [5]: 78.2 IU/L
Na [5]: 141.6 meq/L
PL [5]: 152.2 mg/dL
RALB [5]: 2.7 g/dL
TBIL [5]: 0.044 mg/dL
TC [5]: 82.8 mg/dL
TG [5]: 55.8 mg/dL
TP [5]: 5.7 g/dL
gamma-GTP [5]: 1.4 IU/L
TERMINAL_BW [6]: 192 g
APTT [6]: 15.8 s
Bas [6]: 0%
Eos [6]: 0.6%
Fbg [6]: 293 mg/dL
Hb [6]: 13.9 g/dL
Ht [6]: 41.8%
Lym [6]: 73%
MCH [6]: 21 pg
MCHC [6]: 33.3%
MCV [6]: 63 fL
Mono [6]: 2.2%
Neu [6]: 23.8%
PT [6]: 12.3 s
Plat [6]: 107.3 x10_4/uL
RBC [6]: 663.8 x10_4/ul
Ret [6]: 9.1%
WBC [6]: 56.8 x10_2/uL
KIDNEY_L [6]: 0.8 g
KIDNEY_R [6]: 0.8 g
KIDNEY_TOTAL [6]: 1.6 g
LIVER [6]: 7.4 g
A/G [6]: 0.9
ALP [6]: 1585.6 IU/L
ALT [6]: 40.6 IU/L
AST [6]: 72.2 IU/L
BUN [6]: 9.2 mg/dL
CRE [6]: 0.1 mg/dL
Ca [6]: 10.9 mg/dL
Cl [6]: 103.4 meq/L
DBIL [6]: 0.008 mg/dL
GLC [6]: 207.6 mg/dL
IP [6]: 11.1 mg/dL
K [6]: 3.8 meq/L
LDH [6]: 80 IU/L
Na [6]: 140.6 meq/L
PL [6]: 156.8 mg/dL
RALB [6]: 2.7 g/dL
TBIL [6]: 0.04 mg/dL
TC [6]: 93.2 mg/dL
TG [6]: 29.4 mg/dL
TP [6]: 5.7 g/dL
gamma-GTP [6]: 1.4 IU/L
TERMINAL_BW [7]: 190.5 g
APTT [7]: 16.2 s
Bas [7]: 0%
Eos [7]: 0.6%
Fbg [7]: 274.4 mg/dL
Hb [7]: 14.2 g/dL
Ht [7]: 41.9%
Lym [7]: 79%
MCH [7]: 21.5 pg
MCHC [7]: 33.9%
MCV [7]: 63.4 fL
Mono [7]: 2.4%
Neu [7]: 17.6%
PT [7]: 12.2 s
Plat [7]: 111.6 x10_4/uL
RBC [7]: 660.8 x10_4/ul
Ret [7]: 8.9%
WBC [7]: 67.7 x10_2/uL
KIDNEY_L [7]: 0.8 g
KIDNEY_R [7]: 0.8 g
KIDNEY_TOTAL [7]: 1.6 g
LIVER [7]: 6.5 g
A/G [7]: 0.9
ALP [7]: 1518.8 IU/L
ALT [7]: 40.8 IU/L
AST [7]: 75.6 IU/L
BUN [7]: 12 mg/dL
CRE [7]: 0.2 mg/dL
Ca [7]: 10.6 mg/dL
Cl [7]: 103.6 meq/L
DBIL [7]: 0.008 mg/dL
GLC [7]: 184.8 mg/dL
IP [7]: 11 mg/dL
K [7]: 3.7 meq/L
LDH [7]: 95.6 IU/L
Na [7]: 140.6 meq/L
PL [7]: 141.4 mg/dL
RALB [7]: 2.6 g/dL
TBIL [7]: 0.052 mg/dL
TC [7]: 86.6 mg/dL
TG [7]: 23.8 mg/dL
TP [7]: 5.6 g/dL
gamma-GTP [7]: 1.8 IU/L
TERMINAL_BW [8]: 185.8 g
APTT [8]: 18.7 s
Bas [8]: 0%
Eos [8]: 0.4%
Fbg [8]: 204.8 mg/dL
Hb [8]: 13.9 g/dL
Ht [8]: 40.9%
Lym [8]: 71.6%
MCH [8]: 21.5 pg
MCHC [8]: 34%
MCV [8]: 63.2 fL
Mono [8]: 1.8%
Neu [8]: 25.8%
PT [8]: 15.8 s
Plat [8]: 111.5 x10_4/uL
RBC [8]: 647.2 x10_4/ul
Ret [8]: 7.3%
WBC [8]: 73.2 x10_2/uL
KIDNEY_L [8]: 0.8 g
KIDNEY_R [8]: 0.8 g
KIDNEY_TOTAL [8]: 1.7 g
LIVER [8]: 8.6 g
A/G [8]: 0.9
ALP [8]: 2477 IU/L
ALT [8]: 113.6 IU/L
AST [8]: 481 IU/L
BUN [8]: 14.6 mg/dL
CRE [8]: 0.2 mg/dL
Ca [8]: 10.2 mg/dL
Cl [8]: 106.8 meq/L
DBIL [8]: 0.024 mg/dL
GLC [8]: 166.8 mg/dL
IP [8]: 8.3 mg/dL
K [8]: 4.1 meq/L
LDH [8]: 784.6 IU/L
Na [8]: 142 meq/L
PL [8]: 130.8 mg/dL
RALB [8]: 2.6 g/dL
TBIL [8]: 0.074 mg/dL
TC [8]: 85.6 mg/dL
TG [8]: 67.4 mg/dL
TP [8]: 5.5 g/dL
gamma-GTP [8]: 1.4 IU/L
